Measured values as given in patent US4526787A, “N-heterocyclic retinoic acid analogues” (SRI International, priority 1983, dated 1985).

Columns and labels:
[1] = tested on: Hamster Tracheal Organ Culture; assay: Tracheal organ culture assay: reversal of keratinization; assay type: cell-based
Procedure: (§1) The ODC assay measures a compound's ability to prevent the induction of ODC. The tracheal organ culture assay measures a compound's ability to reverse keratinization.
The tracheal organ culture assay is carried out as follows. Tracheas are taken from hamsters that are in very early stages of vitamin A deficiency and placed in organ culture. At the time of culture, the animals are still gaining weight; the tracheal epithelium is generally low columnar or cuboidal, with only occasional patches of squamous metaplasia. Each trachea is opened from the larynx to the carina along the membranous dorsal wall and cultured in a serum-free medium (CMRL-1066; with crystalline bovine insulin, 0.1 μg/ml; hydrocortisone hemisuccinate, 0.1 μg/ml; glutamine, 2 mM; penicillin, 100 units/ml; and streptomycin,100 μg/ml, added). Cultures are gassed with 50% oxygen, 45% nitrogen, and 5% CO2. The culture dishes are rocked at 35.5-36.0 degrees to allow the tracheas contact with both gas and medium. All tracheas are grown in medium containing no retinoid for the first 3 days. At the end of 3 days, some tracheas are harvested; almost of these tracheas have significant squamous metaplasia, and approximately 60% have keratinized lesions. The remaining tracheas are then divided into different groups which are treated with either: (1) retinoid dissolved in dimethylsulfoxide (final concentration of DMSO in culture medium is never greater than 0.1%) or (2) an equivalent amount of DMSO alone. Culture medium is changed three times a week, and all of the remaining tracheas are harvested at the end of 10 days in culture. Tracheas are fixed in 10% buffered formalin and embedded in paraffin. Cross sections of five micrometers are made through the mid-portion, stained with hematoxylin and eosin, and then scored with a microscope for the presence of keratin and keratohyaline granules, both of which are found in approximately 90% of control cultures that received no retinoid for the entire 10 day culture period.

[2] = tested on: Ornithine Decarboxylase; assay: ODC assay: inhibition of induction of ornithine decarboxylase by TPA in mouse skin; assay type: in vivo, mouse (female Charles River CD-1); settings: topical, 1 hour before TPA (17 nmol)
Procedure: as §1
The ODC assay is carried out as follows. Female Charles River CD-1 mice from Charles River Breeding Laboratories, Wilmington, Mass., are used (age 7 to 9 weeks). The dorsal hair of the mice is shaved 1 to 2 days before testing, and only mice showing no hair regrowth are used. […] The test compound, at one of three dose levels (1.7, 17 and 170 nmol), dissolved in 0.2 mL of acetone is applied 1 hour before the TPA treatment to the test groups; the control group is treated with acetone alone. The mice are killed by cervical dislocation five hours after TPA treatment. Determinations are done in triplicate.
The epidermis is obtained from the sacrificed animals. To obtain sufficient material, the dorsal skins from 2 to 3 mice in each treatment group are pooled. […]
The supernatant fraction remaining after centrifugation of the homogenate at 10,000×g for 30 seconds at 0° C. is used for the enzyme assay. Enzyme activity is determined using the microassay for ODC as described by Verma and Boutwell to measure the release of ^14 CO2 from DL-[1-^14 C]-ornithine (58 mCi/mmol) after incubation with the 10,000×g supernatant. […]

Row | SMILES | Reversal of Keratinization in Hamster Tracheal Organ Culture, Active/Total Cultures ([1]; Conc 10^-8 M) | Reversal of Keratinization in Hamster Tracheal Organ Culture, Active/Total Cultures (%) ([1]; Conc 10^-8 M) | Reversal of Keratinization in Hamster Tracheal Organ Culture, Active/Total Cultures ([1]; Conc 10^-9 M) | Reversal of Keratinization in Hamster Tracheal Organ Culture, Active/Total Cultures (%) ([1]; Conc 10^-9 M) | Reversal of Keratinization in Hamster Tracheal Organ Culture, Active/Total Cultures ([1]; Conc 10^-10 M) | Reversal of Keratinization in Hamster Tracheal Organ Culture, Active/Total Cultures (%) ([1]; Conc 10^-10 M) | Reversal of Keratinization in Hamster Tracheal Organ Culture, Active/Total Cultures ([1]; Conc 10^-11 M) | Reversal of Keratinization in Hamster Tracheal Organ Culture, Active/Total Cultures (%) ([1]; Conc 10^-11 M) | Inhibition of Induction of Ornithine Decarboxylase by 12-O-Tetradecanoylphorbol-13-acetate in Mouse Skin, % Inhibition of Control ([2]; Dose 1.7 nmol) [%] | Inhibition of Induction of Ornithine Decarboxylase by 12-O-Tetradecanoylphorbol-13-acetate in Mouse Skin, % Inhibition of Control ([2]; Dose 17 nmol) [%]
1 | CCOC(=O)c1ccc(/C=C(C)/C=C/C2=C(C)CCCC2(C)C)cn1 [Example, (E)-1-(2-Carbethoxy-5-pyridyl)-2-methyl-4-(2,6,6-trimethyl-1-cyclohexen-1-yl)-1,3-butadiene] | 7/7 | 100 | 8/14 | 57 | 4/14 | 29 | 1/7 | 14 | 29 | 68
2 | CC1=C(/C=C/C(C)=C/C=C/C(C)=C/C(=O)O)C(C)(C)CCC1 [Retinoic Acid] | – | 100 | – | 88 | – | 52 | – | – | – | –
